In the assay the test system is Human Pan T Cell (IL-2 release). In words: IL2 released by human pan T cell upon anti-CD3/anti-CD28 stimulation (ELISA). Particulars: Homo sapiens, T-cell, human pan T cells; for maximal fold induction: response of IL-2 over DMSO control, anti-CD3/anti-CD28, 48 hours, ELISA, read-out: IL-2 Max Fold Response; for EC50: IL-2 response, calculated with GraphPad Prism. Format: cell-based. A digest of the protocol:
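Primary human pan-T cells, negatively isolated from PBMC, plated at 100,000 cells/well and stimulated with immobilized anti-CD3 plus soluble anti-CD28 in presence of test compound at varying concentrations. After 2 days, secreted IL-2 in supernatant quantified by ELISA.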

Structures are written as SMILES.

Consider `COc1cc2c(cc1Nc1ncc(Cl)c(N3CCc4ncccc43)n1)CN(C)CC2` [Example 16, N-(5-chloro-4-(2,3-dihydro-1H-pyrrolo[3,2-b]pyridin-1-yl)pyrimidin-2-yl)-6-methoxy-2-methyl-1,2,3,4-tetrahydroisoquinolin-7-amine], for which the EC50 is 100 to 500 nM. Also, the maximal fold induction (48 h) is less than 2.
`CN1CCc2cc(F)c(Nc3ncc(Cl)c(N4CC(C)(CC(=O)O)c5ccccc54)n3)cc2C1` (centres unmarked) [Example 156]: the EC50 was not above 100 nM. The EC (2-fold response) (48 h, concentration of compound that gives 200% IL-2 response (2 folds) over DMSO control) is not above 0.1 µM. Moreover, the maximal fold induction (48 h) was more than 2.

The values above are taken from patent publication US12612424B2, “HPK1 inhibitors and uses thereof” (Regor Pharmaceuticals, Inc., priority 2019, dated 2026).
